Experimental findings from patent US10414797B2, “Gelatinase inhibitors and use thereof” (Iproteos S.L, priority 2015, dated 2019) are described below.

Where a SMILES comes first, the peptide text is derived from it. [ ]: non-standard residue; d: D form. The star is where a group is joined. ξ: configuration not given here. Pro(trans-4-F) = O=C(O)[C@@H]1C[C@@H](F)CN1; NMeIle(3ξ) = CCC(C)[C@H](NC)C(=O)O; Dab = NCC[C@H](N)C(=O)O; Hexanoyl = CCCCCC(=O)*; Bz = O=C(c1ccccc1)*; NHOH = ON*

The IC50 is the concentration needed to halve the response being measured.

One series deals with MMP-1 (Homo sapiens (Human), UniProt P03956). As to the kind of experiment: MMP-1 inhibition assay (fluorogenic peptide substrate). To be noted: recombinant MMP-1 5.52 nM, Mca-PLGL-Dpa-AR-NH2 10 μM, 4 hours at room temperature; tested at 1, 10, 100 and 200 μM. It counts as biochemical. The method, then: (§1) All the experiments were done in 1× reaction buffer, which was obtained from a 10× reaction buffer solution. The content of the 10× reaction buffer was: 50 mL of 0.5 M Tris-HCl, 1.5 M NaCl, 50 mM CaCl2 and 2 mM sodium azide at pH 7.6. To obtain the 1× reaction buffer 4 mL of the 10× reaction buffer were diluted in 36 mL of H2O.
Recombinant MMP-1 expressed in E. Coli was obtained from Enzo Life Sciences (catalog number BML-SE180). Mca-PLGL-Dpa-AR-NH2 (fluorogenic peptide substrate) was obtained from R&D Systems (catalog number ES001).
Preparation of the MMP-1 for the activity assay: MMP-1 was provided as a stock solution (0.55 mg/mL). The enzyme was diluted in 1× reaction buffer to a final concentration of 276 nM.
MMP-1 peptide substrate was provided as a stock solution in DMSO (6 mM). For the assay, the substrate was diluted 1× reaction buffer to a concentration of 100 μM.
Procedure: The enzymatic assays were performed in 96-well microtiter plate, which allowed simultaneous monitoring of multiple reactions. For each reaction, 86 μL of 1× reaction buffer (pH 7.6), 2 μL of MMP-1 (final concentration 5.52 nM) and 2 μL of the corresponding new compound were added to each well. A stock solution of the new compound was prepared in DMSO (100 mM), and dilutions were prepared from this stock solution with DMSO. Finally, to the mixture contained in each well 10 μL of the substrate were added (final concentration 10 μM). The reaction was incubated for 4 hours at room temperature in an orbital shaker (100 rpm).
(§2) The inhibitory activity of the new compound was measured fluorimetrically. The excitation and emission wavelengths were 320 and 405 nm, respectively.
(§3) Inhibitory activity at several concentration points (1, 10, 100 and 200 μM) were measured for each compound. The inhibitory activity on MMP-1, MMP-3 and MMP-7 was calculated according to eq 1 and The IC50 value was calculated as explained above for MMP-2 and MMP-9.

In the next series the target is MMP-3 (Homo sapiens (Human), UniProt P08254). In words: MMP-3 inhibition assay (fluorogenic peptide substrate). It counts as biochemical. To be noted: recombinant MMP-3 7.7 nM, Mca-RPKPVE-Nval-WRK(Dnp)-NH2 10 μM, 4 hours at room temperature; tested at 1, 10, 100 and 200 μM. Here is the method: as §1
Recombinant MMP-3 expressed in E. Coli was obtained from Merck-Millipore (catalog number 44217). Mca-RPKPVE-Nval-WRK(Dnp)-NH2 (fluorogenic peptide substrate) was obtained from R&D Systems (catalog number ES002).
Preparation of the MMP-3 for the activity assay: MMP-3 was provided as a stock solution (0.1 mg/mL). The enzyme was diluted in water to a final concentration of 0.005 mg/mL.
MMP-3 peptide substrate was provided as a stock solution in DMSO (4.5 mM). For the assay, the substrate was diluted 1× reaction buffer to a concentration of 100 μM.
Procedure: The enzymatic assays were performed in 96-well microtiter plate, which allowed simultaneous monitoring of multiple reactions. For each reaction, 84.6 μL of 1× reaction buffer (pH 7.6), 3.4 μL of MMP-3 (final concentration 7.7 nM) and 2 μL of the corresponding new compound were added to each well. A stock solution of new compound was prepared in DMSO (100 mM), and dilutions were prepared from this stock solution with DMSO. Finally, to the mixture contained in each well 10 μL of the substrate were added (final concentration 10 μM). The reaction was incubated for 4 hours at room temperature in an orbital shaker (90 rpm).
as §2, §3

Series [1] in a line: Parallel artificial membrane permeability assay (PAMPA), Blood-Brain Barrier. It counts as in vitro ADME. To be noted: initial concentration 200 μM, pH 7.4, 4 hours; for Papp at 4 h, 200 µM: pig, read-out: Effective permeability Pe. The method, then: Parallel Artificial Membrane Permeability Assay (PAMPA)
Parallel artificial membrane permeability assay (PAMPA) described in Kansy et al., J. M. Chem. 1998; 41(7):1007-10 was used here to determine the capacity of compounds to cross the Blood-Brain Barrier (BBB) by passive diffusion (Di L et al., Eur. J. Med. Chem. 2003; 38(3):223-32). The effective permeability (Pe) of the compounds was measured at an initial concentration of 200 μM. The buffer solution was prepared from a commercial concentrated one following the manufacturer's instructions. pH was adjusted to 7.4 using a 0.5 M NaOH solution. A stock solution of new compound was prepared in DMSO and diluted with buffer solution to a final 200 μM concentration (0.5% DMSO content). The PAMPA sandwich was separated and each donor well was filled with […] of the compound solution. The acceptor plate was placed into the donor plate, ensuring that the underside of the membrane was in contact with buffer. 4 μL of the mixture of phospholipids (20 mg/ml) in dodecane was added to the filter of each well, and 200 μL of buffer solution was added to the each acceptor well. The plate was covered and incubated at room temperature in a saturated humidity atmosphere for 4 hours under orbital agitation at 100 rpm. After 4 hours, the contents of the acceptor and donor compartments were analyzed by HPLC: 150 μL of each well from the donor plate and 150 μL of each well from the acceptor plate were transferred to HPLC vials, injecting each sample into a reverse-phase C18 column (150 mm×4.6 mm×5 μm, 100 Å) (100 μL/injection from the acceptor wells, 10 μL/injection from the donor wells and for t0 references). Transport was also confirmed using mass spectrometry (MALDI-TOF).
The phospholipid mixture used was a porcine polar brain lipid extract, provided by Avanti polar lipids, with the following composition: 12.6% phosphatidylcholine (PC), 33.1% phosphatidylethanolamine (PE), 18.5% phosphatidylserine (PS), 4.1% phosphatidylinositol (PI), 0.8% phosphatidic acid and 30.9% of other compounds.
The effective permeability (Pe) after 4 hours was calculated using equation 2 and the percentage of transport (T %) was calculated using equation 3: […]
Ca(t) is the compound concentration in the acceptor well at time t
And Cd(t0) is the compound concentration in the donor well at t0.
Background: The PAMPA barrier holds no transporters, so it reflects passive diffusion.

Sequence of MMP-3 (P08254 100-477): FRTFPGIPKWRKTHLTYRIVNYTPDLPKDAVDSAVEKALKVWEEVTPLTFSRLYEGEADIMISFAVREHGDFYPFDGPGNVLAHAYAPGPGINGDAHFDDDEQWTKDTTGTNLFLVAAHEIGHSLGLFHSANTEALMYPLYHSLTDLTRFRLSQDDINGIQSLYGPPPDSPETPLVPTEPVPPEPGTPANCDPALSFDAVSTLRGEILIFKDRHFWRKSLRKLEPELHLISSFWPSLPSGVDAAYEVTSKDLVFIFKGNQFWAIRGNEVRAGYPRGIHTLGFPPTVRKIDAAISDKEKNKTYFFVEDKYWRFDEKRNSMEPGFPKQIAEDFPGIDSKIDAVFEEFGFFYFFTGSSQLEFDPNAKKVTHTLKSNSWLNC
Sequence of MMP-1 (P03956 100-269): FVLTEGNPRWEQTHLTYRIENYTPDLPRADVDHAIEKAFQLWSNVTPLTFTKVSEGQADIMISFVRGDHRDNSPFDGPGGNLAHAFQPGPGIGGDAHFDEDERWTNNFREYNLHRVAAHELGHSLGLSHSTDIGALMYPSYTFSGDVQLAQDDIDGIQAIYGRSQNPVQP

With `CCC(C)[C@@H](C(=O)N[C@@H](CCNC(=O)c1cc(F)cc(F)c1)C(=O)NO)N(C)C(=O)[C@@H]1CCCN1C(=O)CCCOc1ccccc1` (stereo partly drawn) [Example 9, (2S)—N-[(1S)-1-[[(1S)-3-[(3,5-difluorobenzoyl)amino]-1-(hydroxycarbamoyl)propyl]carbamoyl]-2-methyl-butyl]-N-methyl-1-(4-phenoxybutanoyl)pyrrolidine-2-carboxamide], the concentration for half-maximal inhibition (IC50) at MMP-1 was determined as 11.4 µM; on MMP-3, 3.2 µM. Moreover, the “percentage of transport % T” value in series [1] is 9.9%. Besides, the Papp at 4 h, 200 µM in series [1] came out at 5.2 ×10⁻⁶ cm/s.

Regarding `CCCCCCCC(=O)N1CCC[C@H]1C(=O)N(C)[C@H](C(=O)N[C@@H](CCNC(=O)c1cc(F)cc(F)c1)C(=O)NO)C(C)CC` (stereo partly drawn) [Example 6, (2S)—N-[(1S)-1-[[(1S)-3-[(3,5-difluorobenzoyl)amino]-1-(hydroxycarbamoyl)propyl]carbamoyl]-2-methyl-butyl]-N-methyl-1-octanoyl-pyrrolidine-2-carboxamide], the IC50 on MMP-1 worked out at 25.6 µM. Also, the IC50 at MMP-3 is 53.4 µM. Moreover, in series [1], the “percentage of transport % T” value is recorded as 14.3% and the Papp at 4 h, 200 µM was 3.5 ×10⁻⁶ cm/s.

Regarding `CCCCCC(=O)N1CC(F)(F)C[C@H]1C(=O)N(C)[C@H](C(=O)N[C@@H](CCNC(=O)c1cc(F)cc(F)c1)C(=O)NO)C(C)CC` (stereo partly drawn) [Example 7, (2S)—N-[(1S)-1-[[(1S)-3-[(3,5-difluorobenzoyl)amino]-1-(hydroxycarbamoyl)propyl]carbamoyl]-2-methyl-butyl]-4,4-difluoro-1-hexanoyl-N-methyl-pyrrolidine-2-carboxamide], the IC50 at MMP-1 is 24.7 µM; at MMP-3 it was 22.5 µM. Further, the “percentage of transport % T” value in series [1] is reported as 19.0%. The Papp at 4 h, 200 µM in series [1] was found to be 11.3 ×10⁻⁶ cm/s.

`CCC(C)[C@@H](C(=O)N[C@@H](CCNC(=O)c1cc(F)cc(F)c1)C(=O)NO)N(C)C(=O)[C@@H]1CCCN1C(=O)CC(C)C` (stereo partly drawn) [Example 5, (2S)—N-[(1S)-1-[[(1S)-3-[(3,5-difluorobenzoyl)amino]-1-(hydroxycarbamoyl)propyl]carbamoyl]-2-methyl-butyl]-N-methyl-1-(3-methylbutanoyl)pyrrolidine-2-carboxamide]: the half-maximal inhibitory concentration (IC50) at MMP-1 is 6.68 µM. For the same compound, the IC50 at MMP-3 amounted to 25.7 µM. Besides, in series [1], the “percentage of transport % T” value was 7.6% and the Papp at 4 h, 200 µM worked out at 1.9 ×10⁻⁶ cm/s.

Turning to `CCCC(CCC)C(=O)N1CCC[C@H]1C(=O)N(C)[C@H](C(=O)N[C@@H](CCNC(=O)c1cc(F)cc(F)c1)C(=O)NO)C(C)CC` (stereo partly drawn) [Example 8, (2S)—N-[(1S)-1-[[(1S)-3-[(3,5-difluorobenzoyl)amino]-1-(hydroxycarbamoyl)propyl]carbamoyl]-2-methyl-butyl]-N-methyl-1-(2-propylpentanoyl)pyrrolidine-2-carboxamide], the concentration for half-maximal inhibition (IC50) at MMP-1 was determined as 3.65 µM; on MMP-3 it was 3.81 µM. The “percentage of transport % T” value in series [1] came out at 9.0%. Further, in series [1], the Papp at 4 h, 200 µM was found to be 4.7 ×10⁻⁶ cm/s.

On to `CCCCCC(=O)N1C[C@H](F)C[C@H]1C(=O)N(C)[C@H](C(=O)N[C@@H](CCNC(=O)c1ccccc1)C(=O)NO)C(C)CC` (stereo partly drawn) [Example 16, (2S,4R)—N-[(1S)-1-[[(1S)-3-benzamido-1-(hydroxycarbamoyl)propyl]carbamoyl]-2-methyl-butyl]-4-fluoro-N-methyl-1-hexanoyl-pyrrolidine-2-carboxamide] (Hexanoyl-[Pro(trans-4-F)]-[NMeIle(3ξ)]-[Dab](Bz)-{NHOH}), for which the “MMP-1 IC50” value on MMP-1 was less than 1 µM. The “MMP-3 IC50” value at MMP-3 was less than 1 µM. Also, in series [1], the “percentage of transport % T” value is on record as 7.3% and the Papp at 4 h, 200 µM was found to be 3.7 ×10⁻⁶ cm/s.

As to `CCC(C)[C@@H](C(=O)N[C@@H](CCNC(=O)c1cc(F)cc(F)c1)C(=O)NO)N(C)C(=O)[C@@H]1CC(F)(F)CN1C(=O)CCCOc1ccccc1` (stereo partly drawn) [Example 10, (2S)—N-[(1S)-1-[[(1S)-3-[(3,5-difluorobenzoyl)amino]-1-(hydroxycarbamoyl)propyl]carbamoyl]-2-methyl-butyl]-4,4-difluoro-N-methyl-1-(4-phenoxybutanoyl)pyrrolidine-2-carboxamide], the concentration for half-maximal inhibition (IC50) at MMP-1 was 6.61 µM. Further, the IC50 on MMP-3 came out at 160 µM. Besides, in series [1], the “percentage of transport % T” value came to 13.6% and the Papp at 4 h, 200 µM was found to be 7.6 ×10⁻⁶ cm/s.

On to `CCCCCC(=O)N1CCC[C@H]1C(=O)N(C)[C@H](C(=O)N[C@@H](CCNC(=O)c1cc(F)cc(F)c1)C(=O)NO)C(C)CC` (stereo partly drawn) [Example 3, (2S)—N-[(1S)-1-[[(1S)-3-[(3,5-difluorobenzoyl)amino]-1-(hydroxycarbamoyl)propyl]carbamoyl]-2-methyl-butyl]-1-hexanoyl-N-methyl-pyrrolidine-2-carboxamide], for which the IC50 on MMP-1 amounted to 6.82 µM. The IC50 on MMP-3 came out at 25.4 µM. Further, in series [1], the “percentage of transport % T” value is listed as 9.3% and the Papp at 4 h, 200 µM was 2.3 ×10⁻⁶ cm/s.
